Our source for the Activity and inhibition values is ChEMBL document CHEMBL5236627, “Synthesis and biological activity evaluation of novel 3,5,7-trisubstituted pyrazolo[1,5-a]pyrimidines” (2023).

Experiment [1] relates to MV4-11. Nature of the experiment: Anticancer activity against human MV4-11 cells expressing FLT3-ITD mutant. The format is functional, cell-based.
For a further experiment, the system named is MOLM-13. Nature of the experiment: Anticancer activity against human MOLM-13 cells. The format is functional, cell-based.
The test system of experiment [2] is MV4-11. Nature of the experiment: Induction of cell cycle arrest in human MV4-11 cells assessed as accumulation of G1 phase cells at 0.001 uM by PI staining based flow cytometric analysis (reference value: 60.77 % ). The format is functional. On the technique in general: In flow cytometry, cells or beads pass a laser one at a time.
The subject of experiment [3] is MV4-11. Nature of the experiment: Induction of cell cycle arrest in human MV4-11 cells assessed as G2 phase cells at 0.001 uM by PI staining based flow cytometric analysis (reference value: 12.61 % ). The format is functional.
Experiment [4] has as its system MV4-11. The experiment in a line: Induction of cell cycle arrest in human MV4-11 cells assessed as S phase cells at 0.001 uM by PI staining based flow cytometric analysis (reference value: 26.62 % ). The format is functional.
The test system of experiment [5] is MV4-11. The experiment in a line: Induction of cell cycle arrest in human MV4-11 cells assessed as accumulation of G1 phase cells at 0.01 uM by PI staining based flow cytometric analysis (reference value: 60.77 % ). The format is functional.
The subject of experiment [6] is MV4-11. Nature of the experiment: Induction of cell cycle arrest in human MV4-11 cells assessed as G2 phase cells at 0.01 uM by PI staining based flow cytometric analysis (reference value: 12.61 % ). The format is functional.
In experiment [7] the test system is MV4-11. The experiment in a line: Induction of cell cycle arrest in human MV4-11 cells assessed as S phase cells at 0.01 uM by PI staining based flow cytometric analysis (reference value: 26.62 % ). The format is functional.
In experiment [8] the test system is MV4-11. The experiment in a line: Induction of cell cycle arrest in human MV4-11 cells assessed as accumulation of G1 phase cells at 0.1 uM by PI staining based flow cytometric analysis (reference value: 60.77 % ). The format is functional.
For experiment [9], the system named is MV4-11. The experiment in a line: Induction of cell cycle arrest in human MV4-11 cells assessed as G2 phase cells at 0.1 uM by PI staining based flow cytometric analysis (reference value: 12.61 % ). The format is functional.
Experiment [10] concerns MV4-11. Nature of the experiment: Induction of cell cycle arrest in human MV4-11 cells assessed as S phase cells at 0.1 uM by PI staining based flow cytometric analysis (reference value: 26.62 % ). The format is functional.
The test system of experiment [11] is MV4-11. Nature of the experiment: Induction of cell cycle arrest in human MV4-11 cells assessed as accumulation of G1 phase cells at 1 uM by PI staining based flow cytometric analysis (reference value: 60.77 % ). The format is functional.
The subject of experiment [12] is MV4-11. Nature of the experiment: Induction of cell cycle arrest in human MV4-11 cells assessed as G2 phase cells at 1 uM by PI staining based flow cytometric analysis (reference value: 12.61 % ). The format is functional.
Experiment [13] has as its system MV4-11. Nature of the experiment: Induction of cell cycle arrest in human MV4-11 cells assessed as S phase cells at 1 uM by PI staining based flow cytometric analysis (reference value: 26.62 % ). The format is functional.
Experiment [14] relates to MV4-11. Nature of the experiment: Induction of cell cycle arrest in human MV4-11 cells assessed as accumulation of G1 phase cells at 10 uM by PI staining based flow cytometric analysis (reference value: 60.77 % ). The format is functional.
For experiment [15], the system named is MV4-11. The experiment in a line: Induction of cell cycle arrest in human MV4-11 cells assessed as G2 phase cells at 10 uM by PI staining based flow cytometric analysis (reference value: 12.61 % ). The format is functional.
Experiment [16] has as its system MV4-11. Nature of the experiment: Induction of cell cycle arrest in human MV4-11 cells assessed as S phase cells at 10 uM by PI staining based flow cytometric analysis (reference value: 26.62 % ). The format is functional.
For the next experiment, the system named is CCRF-CEM. The experiment in a line: Anticancer activity against FLT3-independent human CCRF-CEM cells. The format is functional, cell-based.
For the next experiment, the system named is THP-1. Nature of the experiment: Anticancer activity against human THP-1 cells. The format is functional, cell-based.
For another experiment, the system named is K562. Nature of the experiment: Anticancer activity against human K562 cells. The format is functional, cell-based.
For another experiment, the system named is MCF7. Nature of the experiment: Anticancer activity against human MCF7 cells. The format is functional, cell-based.
In experiment [17] the target is Cyclin-dependent kinase 2 (Homo sapiens) (UniProt P24941). Nature of the experiment: Inhibition of CDK2 (unknown origin).
Experiment [18] addresses Cyclin-dependent kinase 9 (Homo sapiens) (UniProt P50750). The experiment in a line: Inhibition of CDK9 (unknown origin).
Experiment [19] deals with Receptor-type tyrosine-protein kinase FLT3 (Homo sapiens) (UniProt P36888). Nature of the experiment: Inhibition of FLT3 autophosphorylation at tyrosine 589/591 residues in human MV4-11 cells at 0.01 uM incubated for 1 hrs by immunoblotting analysis. The format is cell-based. On the technique in general: In western blotting, separated proteins are transferred to a membrane and probed.

The target of experiment [20] is T1, Signal transducer and activator of transcription 5A (Homo sapiens) (UniProt P42229).
T1 sequence (whole entry): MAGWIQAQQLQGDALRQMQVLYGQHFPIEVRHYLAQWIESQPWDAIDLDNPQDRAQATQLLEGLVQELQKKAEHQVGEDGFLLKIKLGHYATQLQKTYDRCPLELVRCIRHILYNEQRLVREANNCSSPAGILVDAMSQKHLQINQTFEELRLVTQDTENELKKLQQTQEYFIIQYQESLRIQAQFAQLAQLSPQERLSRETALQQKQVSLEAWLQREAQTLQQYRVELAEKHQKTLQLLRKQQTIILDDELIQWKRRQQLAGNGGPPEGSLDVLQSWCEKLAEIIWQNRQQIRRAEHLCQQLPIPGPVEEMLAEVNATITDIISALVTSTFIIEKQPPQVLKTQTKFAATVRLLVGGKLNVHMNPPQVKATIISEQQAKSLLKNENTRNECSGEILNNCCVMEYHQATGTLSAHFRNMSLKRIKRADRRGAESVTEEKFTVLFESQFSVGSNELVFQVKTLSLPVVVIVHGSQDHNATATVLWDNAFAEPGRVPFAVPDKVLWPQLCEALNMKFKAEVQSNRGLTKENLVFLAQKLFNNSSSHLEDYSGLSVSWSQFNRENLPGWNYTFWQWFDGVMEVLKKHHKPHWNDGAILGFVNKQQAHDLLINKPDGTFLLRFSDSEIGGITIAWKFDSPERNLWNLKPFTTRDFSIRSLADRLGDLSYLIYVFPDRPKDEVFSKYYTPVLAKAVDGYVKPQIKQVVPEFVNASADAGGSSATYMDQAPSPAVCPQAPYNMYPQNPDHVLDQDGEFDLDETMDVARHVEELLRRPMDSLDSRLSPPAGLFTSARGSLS
Nature of the experiment: Inhibition of STAT5 phosphorylation in human MV4-11 cells at 0.01 uM incubated for 1 hrs by immunoblotting analysis. The format is cell-based.

For experiment [21], the target named is Mitogen-activated protein kinase; ERK1/ERK2 (Homo sapiens) (UniProt P27361+P28482). Nature of the experiment: Inhibition of ERK1/2 phosphorylation at Thr202/Tyr204 residues in human MV4-11 cells at 0.1 uM incubated for 1 hrs by immunoblotting analysis. The format is cell-based.

Activity calls are given as the source filed them. The rule behind the calls is not given here.

Chain of Cyclin-dependent kinase 9 (Homo sapiens) (P50750 whole entry): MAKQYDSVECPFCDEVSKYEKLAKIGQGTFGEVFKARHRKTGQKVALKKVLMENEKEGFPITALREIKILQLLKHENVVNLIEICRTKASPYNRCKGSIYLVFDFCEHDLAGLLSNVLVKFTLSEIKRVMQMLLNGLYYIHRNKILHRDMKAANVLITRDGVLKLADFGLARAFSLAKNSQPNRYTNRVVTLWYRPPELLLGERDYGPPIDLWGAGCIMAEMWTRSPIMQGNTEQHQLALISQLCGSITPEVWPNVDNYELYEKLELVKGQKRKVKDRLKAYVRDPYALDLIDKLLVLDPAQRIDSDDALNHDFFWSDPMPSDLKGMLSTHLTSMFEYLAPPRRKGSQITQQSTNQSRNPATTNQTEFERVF
Chain of Mitogen-activated protein kinase; ERK1/ERK2 (Homo sapiens) (P27361 whole entry, looked up): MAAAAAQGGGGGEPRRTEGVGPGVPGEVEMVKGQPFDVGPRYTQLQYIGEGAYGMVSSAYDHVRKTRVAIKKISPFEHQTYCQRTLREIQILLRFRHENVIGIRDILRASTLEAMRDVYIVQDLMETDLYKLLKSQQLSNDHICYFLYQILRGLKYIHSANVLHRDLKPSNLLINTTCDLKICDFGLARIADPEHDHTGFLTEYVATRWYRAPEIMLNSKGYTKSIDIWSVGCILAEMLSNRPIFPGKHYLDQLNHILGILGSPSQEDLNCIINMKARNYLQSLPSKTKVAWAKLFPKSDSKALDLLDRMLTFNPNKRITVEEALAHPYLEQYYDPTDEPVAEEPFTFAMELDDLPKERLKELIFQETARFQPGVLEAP
Chain of Mitogen-activated protein kinase; ERK1/ERK2 (Homo sapiens) (P28482 whole entry, looked up): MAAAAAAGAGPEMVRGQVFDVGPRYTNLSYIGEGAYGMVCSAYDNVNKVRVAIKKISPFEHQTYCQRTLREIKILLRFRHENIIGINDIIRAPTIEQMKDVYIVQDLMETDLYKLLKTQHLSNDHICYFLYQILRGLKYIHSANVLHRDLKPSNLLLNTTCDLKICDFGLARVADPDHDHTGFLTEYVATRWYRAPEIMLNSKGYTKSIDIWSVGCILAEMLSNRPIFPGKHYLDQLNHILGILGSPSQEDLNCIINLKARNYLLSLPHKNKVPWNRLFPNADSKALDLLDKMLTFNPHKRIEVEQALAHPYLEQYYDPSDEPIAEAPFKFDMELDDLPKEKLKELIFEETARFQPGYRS
Chain of Receptor-type tyrosine-protein kinase FLT3 (Homo sapiens) (P36888 whole entry): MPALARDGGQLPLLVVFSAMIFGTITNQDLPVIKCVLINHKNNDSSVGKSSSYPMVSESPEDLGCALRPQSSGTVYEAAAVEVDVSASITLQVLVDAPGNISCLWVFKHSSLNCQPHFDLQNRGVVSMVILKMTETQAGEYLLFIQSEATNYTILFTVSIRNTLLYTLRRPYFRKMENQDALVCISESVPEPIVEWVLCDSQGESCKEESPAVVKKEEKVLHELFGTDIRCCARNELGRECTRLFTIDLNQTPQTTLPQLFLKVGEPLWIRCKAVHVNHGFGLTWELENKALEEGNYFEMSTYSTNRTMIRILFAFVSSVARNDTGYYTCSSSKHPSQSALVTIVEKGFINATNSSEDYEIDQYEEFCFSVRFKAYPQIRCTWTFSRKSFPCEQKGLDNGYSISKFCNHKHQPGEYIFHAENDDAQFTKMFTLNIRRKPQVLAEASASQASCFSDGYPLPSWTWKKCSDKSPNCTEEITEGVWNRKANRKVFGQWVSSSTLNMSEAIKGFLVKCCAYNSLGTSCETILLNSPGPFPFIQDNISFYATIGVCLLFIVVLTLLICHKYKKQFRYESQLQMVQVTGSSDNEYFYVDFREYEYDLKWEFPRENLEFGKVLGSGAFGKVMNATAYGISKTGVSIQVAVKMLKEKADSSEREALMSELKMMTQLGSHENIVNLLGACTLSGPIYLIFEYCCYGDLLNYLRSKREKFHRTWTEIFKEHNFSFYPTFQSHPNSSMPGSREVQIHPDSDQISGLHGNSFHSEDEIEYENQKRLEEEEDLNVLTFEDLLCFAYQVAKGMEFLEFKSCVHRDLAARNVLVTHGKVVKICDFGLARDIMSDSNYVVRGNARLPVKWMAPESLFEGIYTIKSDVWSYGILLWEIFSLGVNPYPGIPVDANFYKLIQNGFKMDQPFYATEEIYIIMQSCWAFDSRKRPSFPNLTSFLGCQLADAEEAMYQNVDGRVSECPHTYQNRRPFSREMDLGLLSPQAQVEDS

With `N[C@H]1CC[C@H](Nc2cc(Nc3cccc(CN4CCOCC4)c3)n3ncc(C4CCCC4)c3n2)CC1`, the result with MV4-11 [1] and in the experiment with MOLM-13 was Active.

With `N[C@H]1CC[C@H](Nc2cc(Nc3ccc(CN4CCOCC4)cc3)n3ncc(C4CCCC4)c3n2)CC1`, the Activity in the experiment with MV4-11 [2] is given as 59.36%; in the experiment with MV4-11 [3] it was 14.62%; in the experiment with MV4-11 [4], 26.03%; in the experiment with MV4-11 [5] it was 61.96%; in the experiment with MV4-11 [6], 12.79%; with MV4-11 [7] it was 25.25%. Also, the Activity with MV4-11 [8] is reported as 86.23%; with MV4-11 [9], 5.11%; in the experiment with MV4-11 [10], 8.66%; with MV4-11 [11], 76.39%; with MV4-11 [12], 7.13%; with MV4-11 [13], 16.48%. The figures for the Activity in the experiment with MV4-11 [14], with MV4-11 [15] and with MV4-11 [16] were 75.69%, 5.93% and 18.38%, respectively. Besides, the outcome with MV4-11 [1], in the experiment with MOLM-13, in the experiment with CCRF-CEM, with THP-1, in the experiment on K562 and with MCF7 was Active. Besides, the inhibition result in [17], in experiment [18], in experiment [19], in experiment [20] and in [21] was “Active” in each case.

As to `N[C@H]1CC[C@H](Nc2cc(Nc3ccc(N4CC5(COC5)C4)cc3)n3ncc(C4CCCC4)c3n2)CC1`, the outcome in the experiment with MV4-11 [1] and in the experiment with MOLM-13 was Active.

For the molecule `CC[C@@H](CO)Nc1cc(Nc2ccc(-c3cccs3)nc2)n2ncc(C3CCCC3)c2n1`, the result in the experiment on MV4-11 [1] and with MOLM-13 was Active.

Turning to `N[C@H]1CC[C@H](Nc2cc(NCc3ccc(Br)cc3)n3ncc(C4CCCC4)c3n2)CC1`, the result in the experiment on MV4-11 [1] and with MOLM-13 was Active.

Consider `NCCCCNc1cc(Nc2ccc(CN3CCOCC3)cc2)n2ncc(C3CCCC3)c2n1`, for which the outcome in the experiment with MV4-11 [1] and in the experiment with MOLM-13 was Active.

In the case of `NCCCCNc1cc(NCc2cccc(CN3CCOCC3)c2)n2ncc(C3CCCC3)c2n1`, the outcome with MV4-11 [1] and in the experiment on MOLM-13 was Active.

Take `N[C@H]1CC[C@H](Nc2cc(Nc3ccc(-c4cccs4)nc3)n3ncc(C4CCCC4)c3n2)CC1`: the result in the experiment on MV4-11 [1], in the experiment with MOLM-13, in the experiment on CCRF-CEM, in the experiment with THP-1, with K562 and with MCF7 was Active. The inhibition result in [17] and in experiment [18] was “Active” each time.
